According to PMC10610016, “New Hybrid Compounds Incorporating Natural Products as Multifunctional Agents against Alzheimer’s Disease” (Pharmaceutics, 2023):

Key:
[1] = DPPH radical scavenging assay; format: biochemical
Procedure: The DPPH assay was carried out in a 96-microwell plate according to a previously described protocol. In brief, DPPH solution (60 µM in MeOH) was added to studied compounds or MeOH as the control. The 96-microwell plate was incubated (in the dark, at r.t. for 1 h) and the absorbance values were read at 517 nm by a SPECTROstarNano (220–1000 nm) UV–Vis spectrophotometer, Ortenberg, Germany. During the first screening, all compounds were tested ad 100 µM, then for compounds 2a–c the EC50 (effective concentration), the concentration of substrate that causes a 50% reduction in the DPPH colour, was calculated.
All experiments were made in triplicate. The percentage of the antioxidant activity (%AA) of the compounds was determined according to Equation (1):%AA = ((AbsDPPH − Abssample)/AbsDPPH) × 100(1)
AbsDPPH is the absorbance of DPPH solution, and Abssample is the absorbance of DPPH solution containing the tested compound.
Each concentration was tested in triplicate and the EC50 value was reported as the mean ± the standard error of the mean (SEM) of three independent experiments.

[2] = ABTS assay; format: biochemical
Procedure: The ABTS assay was performed according to the methods reported in literature. Briefly, 7 mM of ABTS was mixed with 2.45 mM of K2S2O8 solution, ratio 1:1, in 10 mM phosphate buffer (pH 7.4). The mixture was incubated in a dark box at r.t. for 12 h, then the stock solution was diluted until the absorbance was 0.70 ± 0.02 at 734 nm.
In a 96-well plate, 190 µL ABTS working solution and 10 µL sample solution (compounds 2a–c, 3a–c at concentration of 100 μM) were mixed and the absorbance was measured (734 nm) using a SPECTROstarNano (220–1000 nm) UV–Vis spectrophotometer, Ortenberg, Germany. Then, for compounds 2a–c the EC50 was calculated and the values were expressed in TEAC equivalents. Each concentration was tested in triplicate and the EC50 was reported as the mean ± SEM of three independent experiments.

[3] = tested on: rat brain homogenate; assay: TBARS assay, ex vivo rat brain homogenate (Fe3+/ascorbic acid lipid peroxidation); format: biochemical; details: compound 1 μM
Procedure: The TBARS assay was carried on in accordance with a previously published protocol. Briefly, the rat brain, freshly isolated, was homogenized in 10% (w/v) phosphate buffer, pH 7.4. The stock solutions of compounds 2a–c and 3a–c (10 mM in DMSO) were prepared and then diluted at three different concentrations (1 mM, 100 µM, and 10 µM) with phosphate buffer pH 7.4. The experiment was performed in a falcon tube where the rat brain homogenate (100 µL) was added to FeCl3 (20 µM) and ascorbic acid (100 µM) with or without test compounds. […] All samples were heated at 37 °C and were stirred for 30 min. After this period, thiobarbituric acid (1% w/v in 0.05 N NaOH) and 25% v/v HCl were added and the falcon tubes were boiled for 10 min. Then, they were cooled in an ice-cold water bath. Finally, the extraction was executed using n-butanol (3 mL) and the tubes were centrifuged at 2000 g for 10 min. The organic portion was transferred into 96-well plates and the absorbance, at 532 nm, was recorded using a SPECTROstarNano (220–1000 nm) UV–Vis spectrophotometer, Ortenberg, Germany. The TBARS was reported as nmoles of malondialdehyde (MDA)/10 mg of rat brain tissue, by interpolation with the standard curve of 1,1,3,3-tetramethoxypropane. Data represent the mean ± SEM of the triplicate.

[4] = mean ± SEM of three independent experiments

- EC50 [1, 4]: 6.1 ± 0.1 µM
- EC50 [2, 4]: 13.4 ± 0.1 µM
- melting point: 110 to 112 °C
SMILES: O=C(/C=C/c1ccc(O)c(O)c1)NOCc1cccc(C(F)(F)F)c1 [Compound 2b, (E)-3-(3,4-dihydroxyphenyl)-N-((3-(trifluoromethyl)benzyl)oxy)acrylamide]
- %AA (percentage of antioxidant activity), DPPH ([1]; compound 100 µM, DPPH 60 µM in MeOH, 1 h): 96%
- TEAC (Trolox equivalent antioxidant capacity), DPPH [1, 4]: 10.9 ± 0.3 µM
- radical scavenger / antioxidant activity, ABTS ([2]; compound 100 µM): 98.8%
- TEAC, ABTS [2, 4]: 11.7 ± 0.01 µM
- antioxidant effect on TBARS production in rat brain [3]: maintained its profile
